Laboratory results from patent US7326418B2, “Identification of novel factors that block programmed cell death or apoptosis by targeting JNK” (University of Chicago, priority 2001, dated 2008).
“Also recorded” adds a separate entry of the source. Where a name gives a salt, the structure may show the parent alone. Peptide text beside a SMILES is read from it. * marks the point of attachment. Cbz = O=C(OCc1ccccc1)*; CH2F = FC*

Experiments:
[1] = molecular target: T1, JNKK2/MKK7 (Homo sapiens, UniProt O14733, Q133P/Q94H); assay: Kinase assay of immunoprecipitated FLAG-JNKK2/MKK7 (GST-JNK1 substrate) pre-incubated with recombinant Gadd45β proteins or peptides; assay type: biochemical; settings: active MKK7 from TNFα-activated 293 cells, GST-JNK1 substrate
T1 construct: expressed in transfected cells; host or cells: HEK-293, TNFα-treated or untreated; anti-FLAG immunoprecipitate
T1 sequence (O14733 1-401 Q94H/Q133P limits assumed): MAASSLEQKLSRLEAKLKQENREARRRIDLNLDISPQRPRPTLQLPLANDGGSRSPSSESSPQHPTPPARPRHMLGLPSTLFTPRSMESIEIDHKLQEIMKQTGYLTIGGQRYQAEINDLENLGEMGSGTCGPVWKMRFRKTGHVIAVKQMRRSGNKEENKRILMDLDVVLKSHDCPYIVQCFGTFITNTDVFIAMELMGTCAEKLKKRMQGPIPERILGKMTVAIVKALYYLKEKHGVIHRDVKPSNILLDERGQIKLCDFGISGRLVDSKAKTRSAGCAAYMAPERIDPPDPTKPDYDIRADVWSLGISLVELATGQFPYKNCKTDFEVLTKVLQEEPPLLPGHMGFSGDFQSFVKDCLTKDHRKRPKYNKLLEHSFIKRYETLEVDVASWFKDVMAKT
Description: Next, the functional consequences, in vitro, of the physical interactions of Gadd45β with kinases in the JNK pathway were assessed. Murine and human, full-length Gadd45J3 proteins were purified from E. coli as GST-Gadd45β and His6-tagged Gadd45β (His6 disclosed as SEQ ID NO: 46), respectively, according to standard procedures. Prior to employing these proteins in in vitro assays, purity of all recombinant polypeptides was assured by >98%, by performing Coomassie blue staining of SDS polyacrylamide gels. Then, the ability of these proteins, as well as of control GST and His6-EF3 (His6 disclosed as SEQ ID NO: 46)proteins, to inhibit kinases in the JNK pathways was monitored in vitro. FLAG-tagged JNKK2, JNKK1, MKK3, and ASK1 were immunoprecipitated from transiently transfected 293 cells using anti-FLAG antibodies and pre-incubated for 10 minutes with increasing concentrations of recombinant proteins, prior to the addition of specific kinase substrates (i.e. GST-JNK1 with JNKK1 and JNKK2; GST-p38[…] with MKK3; GST-JNNK1 or GST-JNKK2 with ASK1). […] These findings indicate that, upon binding to Gadd45β, JNKK2 is effectively inactivated.
A question was whether Gadd45β inhibited active MKK7, in vitro. FLAG-MKK7 was immunoprecipitated from TNFα-treated or untreated 293 cells, and kinase assays were performed in the presence of purified His6-Gadd45β (His6 disclosed as SEQ ID NO: 46), GST-Gadd45β, or control proteins (FIG. 28d; see also FIG. 28g). […] Consistent with the in vivo findings (FIG. 27), the inhibitory activity of Gadd45β was specific. […] Indeed, the effects of Gadd45β on MKK7 phosphorylation by TNFα may be due inhibition of the MKK7 ability to auto-phoshorylate and/or to serve as substrate for upstream kinases. Altogether, the findings identify MKK7 as a target of Gadd45β, and of NF-[…]B, in the JNK cascade. Of interest, MKK7 is a selective activator of JNK, and its ablation abolishes JNK activation by TNFα. Thus, blockade of MKK7 is sufficient on its own to explain the effects of Gadd45β on JNK signaling—i.e. its specific and near-complete suppression of this signaling.
Active MKK7 was immunoprecipitated from TNFα-activated 293 cells and MKK7 kinase assays were performed using GST-JNK1 substrates and pure recombinant Gadd45β polypeptides (FIG. 37B; a schematic diagram representing the Gadd45βpolypeptides used is shown in FIG. 37A). […] MKK7 kinase assays were performed as in FIG. 37B, except that pure synthetic Gadd45, peptides (whose sequences are shown in FIG. 37C) were used instead of pure recombinant Gadd45β proteins. The amino acid region between amino acids 58 and 77 of Gadd45βis used for the Gadd45β-mediated inhibition of MKK7. […]

[2] = system: JNK activation in 3DO cells; assay: JNK activation by TNFα in 3DO cells (Western blots, JNK kinase assays); assay type: cell-based
Description: Plasmids were transfected as indicated along with pEGFP (Clontech). […] Inhibitors (Calbiochem) and concentrations are as indicated.
Northern blots were performed by standard procedures using 6 μg of total RNA. The EMSAs with the palindromic probes and the preparation of whole cell extracts were as previously described (Franzoso et al., 1992). For western blots, cell extracts were prepared either in a modified lysis buffer (50 mM Tris, pH 7.4, 100 mM NaCl, 50 mM NaF, 1 mM NaBo4, 30 mM pyrophosphate, 0.5% NP-40, and protease inhibitors (FIG. 1B; Boehringer Mannheim), in Triton X-100 buffer (FIG. 4A; Medema et al., 1997) or in a lysis buffer containing 1% NP-40 350 mM NaCl, 20 MM HEPES (pH 8.0), 20% glycerol, 1 mM MgCl2, 0.1 mM EGTA, 0.5 mM DTT, 1 mM Na3VO4, 50 mM NaF and protease inhibitors. Each time, equal amounts of proteins (ranging between 15 and 50 μg) were loaded and Western blots prepared according to standard procedures. Reactions were visualized by ECL (Amersham). Antibodies were as follows: IκBα, Bid, and β-actin from Santa Cruz Biotechnology; caspase-6, -7 and -9, phospho and total -p38, phosph and total -ERK, phospho and total -JNK from Cell Signaling Technology; caspase-8 from Alexis; Caspase-2 and -3 from R&D systems. The Gadd45β-specific antibody was generated against an N-Terminal peptide. Kinase assays were performed with recombinant GST-c-jun and anti-JNK antibodies (Pharmingen), (Lin et al., 1995).

[3] = in vivo, cited from earlier work
[4] = system: 3DO-IκBαM cells; assay: Survival of 3DO-IκBαM cells pretreated with MAPK inhibitors, then TNFα; settings: TNFα 25 U/ml 12 hours
Description: FIG. 5a: Kinetics of JNK activation by TNKα (1000 U/ml) in 3DO—IκBαM and 3DO-Neo clones. Western blots with antibodies specific for phosphorylated (P) or total JNK (top and middle, respectively) and JNK kinase assays (bottom). […] CHX treatments were carried out for 30 minutes in addition to the indicated time. FIG. 5d: Survival of transfected RelA−/− MEFs following treatment with TNFα (1000 U/ml) plus CHX ([…]) for 10 hours. Plasmids were transfected as indicated along with pEGFP (Clontech). FIG. 5e: Survival of 3DO-IκBαM cells pretreated with MAPK inhibitors for 30 minutes and then incubated with either TNFα (25 U/ml) or PBS for an additional 12 hours. Inhibitors (Calbiochem) and concentrations are as indicated. In (d) and (e), values represent the mean of three independent experiments.
MEF and 3DO cells were cultured in 10% Fetal bovine serum-supplemented DMEM and RPMI, respectively. Transient transfections in RelA−/− MEF were performed by Superfect according to the manufacturer's instructions (Qiagen). After cytotoxic treatment with CHX (Sigma) plus or minus TNFα (Peprotech), adherent cells were counted and analyzed by FCM (FACSort, Becton Dickinson) to assess numbers of live GFP^+ cells. To generate 3DO stable lines, transfections were carried out by electroporatoration (BTX) and clones were grown in appropriate selection media containing Geneticin (Gibco) and/or Hygromycin (Invitrogen). […] Daunorubicin, PMA, Ionomycin, hydrogen peroxide, and sorbitol were from Sigma; Cisplatin (platinol AQ) was from VHAplus, PD98059 and SB202190 were from Calbiochem.

[5] = system: BT-20; settings: for induction of apoptosis by NF-κB blockers: PGA1 100 μM 20 hours, CAPE 50 μg/ml 17 hours, parthenolide 2.5 μg/ml 4 hours
[6] = system: MDA-MD-231; settings: for induction of apoptosis by NF-κB blockers: PGA1 100 μM 20 hours, CAPE 50 μg/ml 17 hours, parthenolide 2.5 μg/ml 4 hours
[7] = concomitant treatment with PGA1, CAPE or parthenolide

In the case of “AIDEEEEDDIALQIHFTLIQSFCCDND [amino acids 60-86, positions 60-86 of Gadd45β]”, the “inhibition of MKK7 activity by Gadd45β-derived peptides / polypeptide regions” value [1] is reported as “sufficient to also inhibit MKK7 activity”.
For `COC(=O)C[C@H](NC(=O)[C@H](C)NC(=O)[C@@H](NC(=O)OCc1ccccc1)C(C)C)C(=O)CF` [zVAD-fik] (Cbz-Val-Ala-Asp(OMe)-CH2F), the “late (160 minutes, caspase-dependent) rise of JNK activation by TNFα” value ([2]; IκBαM-Hygro 3DO clones) was “could be prevented”.
In the case of `COc1cccc2c1C(=O)c1c(O)c3c(c(O)c1C2=O)C[C@@](O)([C@H](C)O)C[C@@H]3O[C@H]1C[C@H](N)[C@H](O)[C@H](C)O1` [daunorubicinol], the “half-life of active metabolite” value [3] is given as “about 27 hr”.
For `COc1cccc2c1C(=O)c1c(O)c3c(c(O)c1C2=O)C[C@@](O)(C(C)=O)C[C@@H]3O[C@H]1C[C@H](N)[C@H](O)[C@H](C)O1` [daunorubicin, 5,12-Naphthacenedione, (8S-cis)-8-acetyl-10-[(3-amino-2,3,6-trideoxy-a-L-lyxo-hexanopyranosyl)oxy]-7,8,9,10-tetrahydro-6,8,11-trihydroxy-10-methoxy-, hydrochloride], the oral absorption [3] is given as “poor”, the half-life of elimination [3] is given as “about 19 hr” and the “secreted into the bile” value [3] is given as roughly 40%.
In the case of `N.N.[Cl][Pt][Cl]` [Cisplatin], the oral absorption [3] is given as “not absorbed orally”.
For `Oc1ccc(-c2nc(-c3ccncc3)c(-c3ccc(F)cc3)[nH]2)cc1` [SB202190], the “cell survival under TNFα” value ([4]; high concentrations, 50 μM) was “dramatically enhanced cell survival; also recorded: rescues” and the “antagonism of TNFα cytotoxicity” value ([4]; low concentrations, 5 μM and lower) was “could not antagonize”.
For `CCCCC[C@H](O)/C=C/[C@H]1C=CC(=O)[C@@H]1CCCCCCC(=O)O` [prostaglandin A1], the “induction of apoptosis by NF-κB blockers” value [5] was “induced apoptosis rapidly” and the “induction of apoptosis by NF-κB blockers” value [6] was “induced apoptosis rapidly”.
For `O=C(/C=C/c1ccc(O)c(O)c1)OCCc1ccccc1` [CAPE], the “induction of apoptosis by NF-κB blockers” value [5] was “induced apoptosis rapidly” and the “induction of apoptosis by NF-κB blockers” value [6] was “induced apoptosis rapidly”.
For `Oc1c2ccccc2c2c3c(cccc13)N=N2` [SP600125], the “rescue from cytotoxicity induced by inhibition of NF-κB” value [5, 7] was “can be rescued; also recorded: dramatically rescued” and the “rescue from cytotoxicity induced by inhibition of NF-κB” value [6, 7] was “can be rescued; also recorded: dramatically rescued”.
With `COc1cccc(-c2cc(=O)c3ccccc3o2)c1N` [PD98059] the “antagonism of TNFα cytotoxicity” value ([4]; 30 min pretreatment) was “could not antagonize”.
In the case of `C[C@@H]1C[C@@H]([C@H](O)CC2CC(=O)NC(=O)C2)C(=O)[C@@H](C)C1` [CHX, cycloheximide], the “JNK activation by agent alone” value ([2]; 3DO cells, CHX alone) is reported as “no effect” and the “down-regulation of TNFα-induced JNK” value ([2]; parental 3DO cells, TNFα 1000 U/ml plus CHX 10 μg/ml) is reported as “impaired”.
